# Measured values taken from ChEMBL document CHEMBL1155993, “5-(2-Pyrimidinyl)-imidazo[1,2-a]pyridines are antibacterial agents targeting the ATPase domains of DNA gyrase and topoisomerase IV” (Bioorg Med Chem Lett, 2009).
# Assays:
# Streptococcus pneumoniae [1] = experiment: Antibacterial activity against Streptococcus pneumoniae SP-3 by NCCLS method; format: functional
# ParE = biological target: T1, ParE (Streptococcus pneumoniae, UniProt Q7X1P7); experiment: Inhibition of Streptococcus pneumoniae SP-3 parE after 30 mins
# T1 sequence (Q7X1P7 whole entry): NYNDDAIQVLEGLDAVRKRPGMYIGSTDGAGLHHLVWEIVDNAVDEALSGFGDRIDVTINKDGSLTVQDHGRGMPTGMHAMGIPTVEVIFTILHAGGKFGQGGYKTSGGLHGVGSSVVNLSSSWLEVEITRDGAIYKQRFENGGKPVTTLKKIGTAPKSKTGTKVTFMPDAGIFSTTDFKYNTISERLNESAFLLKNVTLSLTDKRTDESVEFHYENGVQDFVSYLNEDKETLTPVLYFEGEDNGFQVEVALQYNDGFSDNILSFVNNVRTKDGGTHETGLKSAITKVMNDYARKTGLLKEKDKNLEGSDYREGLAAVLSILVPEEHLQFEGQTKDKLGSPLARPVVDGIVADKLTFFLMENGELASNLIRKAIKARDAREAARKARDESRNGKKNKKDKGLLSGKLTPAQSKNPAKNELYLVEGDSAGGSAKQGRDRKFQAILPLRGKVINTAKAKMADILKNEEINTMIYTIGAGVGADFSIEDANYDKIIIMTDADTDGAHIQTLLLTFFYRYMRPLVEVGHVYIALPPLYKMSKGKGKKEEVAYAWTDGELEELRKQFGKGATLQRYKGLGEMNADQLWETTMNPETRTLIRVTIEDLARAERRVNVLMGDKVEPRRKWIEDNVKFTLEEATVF
# [2] = Volume of distribution in rat; format: ADME, organism-based; conditions: in vivo
# Staphylococcus aureus [3] = experiment: Antibacterial activity against methicillin resistant Staphylococcus aureus SA-1417 by NCCLS method; format: functional
# Streptococcus pneumoniae [4] = experiment: Antibacterial activity against fluoroquinolone resistant Streptococcus pneumoniae SP-3765 by NCCLS method; format: functional
# DNA gyrase subunit B = DNA gyrase subunit B (Streptococcus pneumoniae serotype 4 (strain ATCC BAA-334 / TIGR4), UniProt P0A4L9); experiment: Inhibition of Streptococcus pneumoniae SP-3 gyrB by enzyme coupled phosphate assay
# Sequence of DNA gyrase subunit B (P0A4L9 whole entry): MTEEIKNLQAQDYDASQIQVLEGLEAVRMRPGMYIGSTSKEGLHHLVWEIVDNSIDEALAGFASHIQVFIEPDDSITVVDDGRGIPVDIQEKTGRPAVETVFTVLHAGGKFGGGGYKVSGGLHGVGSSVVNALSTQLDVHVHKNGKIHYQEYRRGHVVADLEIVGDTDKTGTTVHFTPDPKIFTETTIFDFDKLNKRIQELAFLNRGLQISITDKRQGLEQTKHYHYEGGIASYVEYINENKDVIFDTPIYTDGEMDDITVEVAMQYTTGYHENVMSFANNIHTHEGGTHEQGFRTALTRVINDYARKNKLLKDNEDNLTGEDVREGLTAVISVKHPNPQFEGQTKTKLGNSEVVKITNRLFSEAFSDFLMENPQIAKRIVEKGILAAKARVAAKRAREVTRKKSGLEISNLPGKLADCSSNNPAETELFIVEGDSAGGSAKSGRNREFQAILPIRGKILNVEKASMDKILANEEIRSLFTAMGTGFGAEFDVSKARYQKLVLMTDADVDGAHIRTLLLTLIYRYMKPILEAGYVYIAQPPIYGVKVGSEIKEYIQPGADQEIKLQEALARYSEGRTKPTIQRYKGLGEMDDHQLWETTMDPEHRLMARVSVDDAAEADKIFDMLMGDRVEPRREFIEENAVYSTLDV
# Streptococcus pyogenes [5] = experiment: Antibacterial activity against Streptococcus pyogenes SP1-1 infected in po dosed mouse sepsis model; format: functional; conditions: SP1-1, po, read-out: PD50
# Streptococcus pyogenes [6] = experiment: Antibacterial activity against Streptococcus pyogenes SP1-1 by NCCLS method; format: functional
# [7] = Bioavailability in rat; format: ADME, organism-based; conditions: in vivo
# [8] = Clearance in rat; format: ADME, organism-based; conditions: in vivo
# Staphylococcus aureus [9] = experiment: Antibacterial activity against Staphylococcus aureus UC76 by NCCLS method; format: functional, organism-based
# Streptococcus pneumoniae [10] = experiment: Antibacterial activity against Streptococcus pneumoniae SV-1 infected in po dosed mouse lung; format: functional; conditions: SV-1, po, read-out: PD50
# Streptococcus pneumoniae [11] = experiment: Antibacterial activity against Streptococcus pneumoniae D39 by NCCLS method; format: functional
# Streptococcus pyogenes [12] = experiment: Antibacterial activity against Streptococcus pyogenes C203 by NCCLS method; format: functional
# Staphylococcus aureus [13] = experiment: Antibacterial activity against methicillin resistant Staphylococcus aureus 01A-1095 by NCCLS method; format: functional
SMILES,MIC (Streptococcus pneumoniae [1]) [µg/mL],IC50 (ParE) [nM],Vd [2] [L/kg],MIC (Staphylococcus aureus [3]) [µg/mL],MIC (Streptococcus pneumoniae [4]) [µg/mL],IC50 (DNA gyrase subunit B) [nM],ED50 (Streptococcus pyogenes [5]) [mg/kg],MIC (Streptococcus pyogenes [6]) [µg/mL],bioavailability [7] [%],clearance [8] [mL/min/kg],MIC (Staphylococcus aureus [9]; read-out: MIC) [µg/mL],ED50 (Streptococcus pneumoniae [10]) [mg/kg],MIC (Streptococcus pneumoniae [11]) [µg/mL],MIC (Streptococcus pyogenes [12]) [µg/mL],MIC (Staphylococcus aureus [13]) [µg/mL],MIC (Staphylococcus aureus [9]) [µg/mL]
CCNC(=O)Nc1cn2c(-c3ncc(C)cn3)cc(-c3cccnc3)cc2n1,0.125,250,1.3,0.5,0.125,53,24,0.5,99,18,0.5,21,,,,
CO[C@@H]1[C@@H](OC(N)=O)[C@@H](O)[C@H](Oc2ccc3c(O)c(NC(=O)c4ccc(O)c(CC=C(C)C)c4)c(=O)oc3c2C)OC1(C)C [NOVOBIOCIN],,2030,,,4,,,,,,,,4,8,0.125,0.125
CCNC(=O)Nc1cn2c(-c3ncc(C(F)(F)F)cn3)cc(-c3cccnc3)cc2n1,0.5,367,,1,0.25,163,,1,,,1,,,,,
CCNC(=O)Nc1cn2c(-c3ncccn3)cc(-c3cccnc3)cc2n1,0.125,447,1.6,0.5,0.25,48,24,0.25,56,33,0.5,35,,,,
CCNC(=O)Nc1cn2c(-c3ncc(C)cn3)cc(-c3ccn(CCF)c(=O)c3)cc2n1,0.125,10000,,1,0.5,376,,0.5,,,0.5,,,,,
